# Experimental data taken from paper PMC12006171, “Marsupial cathelicidins: characterization, antimicrobial activity and evolution in this unique mammalian lineage” (Frontiers in Immunology, 2025).
# Read-outs that look alike come from different tables or passages of the source. Where a SMILES comes first, the peptide text is derived from it.
# Columns and labels:
# Assay type in all cases: cell-based
# [1] = system: Escherichia coli ATCC 25922; experiment: microbe, parasite or virus in culture
# How it was run: (§1)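 CLSI broth microdilution, MHB ± cations ± 10% lysed horse blood; peptide 64-0.125μg/mL final, duplicates; 5 x 10^5 CFU/mL; 35°C, 20–24 h; MIC = no visible growth.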
# [2] = system: Escherichia coli clinical isolate - animal; experiment: microbe, parasite or virus in culture
# How it was run: as §1
# [3] = system: Pseudomonas aeruginosa ATCC 27853; experiment: microbe, parasite or virus in culture
# How it was run: as §1
# [4] = system: Pseudomonas aeruginosa clinical isolate - animal; experiment: microbe, parasite or virus in culture
# How it was run: as §1
# [5] = system: Staphylococcus aureus ATCC 29213; experiment: microbe, parasite or virus in culture
# How it was run: as §1
# [6] = system: Staphylococcus aureus clinical isolate - animal; experiment: microbe, parasite or virus in culture
# How it was run: as §1
# [7] = system: Candida albicans Clinical isolate - human; experiment: microbe, parasite or virus in culture
# How it was run: (§2)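 Broth microdilution per CLSI M07-A/M26A; cathelicidin peptides tested at final 64-0.125μg/mL, inoculum 5 x 10^5 CFU/mL, 35°C for 20–24 hours. Bacteria in MHB (±10% lysed horse blood, ±Ca/Mg), yeasts in RPMI-1640 MOPS. MIC = lowest concentration preventing visible growth.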
# Candida krusei ATCC 6258 = experiment: microbe, parasite or virus in culture
# How it was run: as §2
# [8] = system: Candida parapsilosis ATCC 22019; experiment: microbe, parasite or virus in culture; details: for MIC: read-out: MIC C. parapsilosis ATCC
# How it was run: as §2
# [9] = system: Streptococcus agalactiae ATCC 12386; experiment: microbe, parasite or virus in culture
# How it was run: as §2
# [10] = system: Streptococcus agalactiae Clinical isolate - animal; experiment: microbe, parasite or virus in culture
# How it was run: as §2
# [11] = system: Streptococcus pneumoniae ATCC 49619; experiment: microbe, parasite or virus in culture
# How it was run: as §2
# [12] = system: Staphylococcus aureus clinical isolate – animal, methicillin-resistant (MRSA)
# How it was run: as §2
# [13] = system: Staphylococcus aureus clinical isolate – animal, penicillin-resistant (PRSA)
# How it was run: as §2
# [14] = clinical isolate – animal, methicillin-resistant
# [15] = clinical isolate – animal, penicillin-resistant (PRSA)
# [16] = value in brackets, µM equivalent of Table 3
# [17] = clinical isolate, superscript value, cation-adjusted Mueller Hinton broth, µM equivalent
# [18] = clinical isolate, value in brackets, µM equivalent of Table 3
# [19] = clinical isolate, µM equivalent of Table 3
# [20] = value in brackets, µM version of Table 4
compound,measurement,setting,value
CC[C@H](C)[C@H](NC(=O)[C@H](CCCNC(=N)N)NC(=O)CNC(=O)[C@H](CCCNC(=N)N)NC(=O)[C@@H](N)CCCCN)C(=O)N[C@@H](Cc1ccccc1)C(=O)N[C@@H](CCCNC(=N)N)C(=O)N[C@@H](CCCCN)C(=O)N[C@@H](Cc1ccccc1)C(=O)N[C@@H](CCCCN)C(=O)N[C@@H](CCCCN)C(=O)N[C@@H](CC(C)C)C(=O)N[C@@H](CC(C)C)C(=O)N[C@@H](CCCCN)C(=O)N[C@@H](CCCCN)C(=O)N[C@@H](CC(C)C)C(=O)NCC(=O)N[C@@H](CC(=O)O)C(=O)N[C@@H](CCCCN)C(=O)N[C@H](C(=O)N[C@@H](CCCCN)C(=O)N[C@@H](CC(N)=O)C(=O)N[C@H](C(=O)N[C@@H](CC(C)C)C(=O)N[C@@H](CCCCN)C(=O)N[C@@H](CC(N)=O)C(=O)N[C@@H](C)C(=O)N[C@@H](CCCNC(=N)N)C(=O)N[C@@H](CC(N)=O)C(=O)NCC(=O)N[C@@H](Cc1ccccc1)C(=O)N[C@@H](CC(C)C)C(=O)NCC(=O)N1CCC[C@H]1C(=O)N[C@H](C(=O)NCC(=O)N[C@@H](CCCNC(=N)N)C(=O)O)[C@@H](C)CC)[C@@H](C)O)[C@@H](C)CC [MAP8] (H-KRGRIFRKFKKLLKKLGDKIKNTLKNARNGFLGPIGR-OH),MBC E. coli ATCC,[1]; ATCC 25922,7.4 µM
same,MIC,"[1]; ATCC 25922, read-out: MIC E. coli ATCC",3.7 µM
same,MIC,"[1]; ATCC 25922, read-out: MIC in the presence of cations E. coli ATCC",3.7 µM
same,MBC E. coli,[2]; clinical isolate - animal,3.7 µM
same,MIC,[2]; clinical isolate - animal,3.7 µM
same,MIC in the presence of cations E. coli,[2]; clinical isolate - animal,1.8 µM
same,MBC P. aeruginosa ATCC,[3]; ATCC 27853,3.7 (3.7)^3.7 µM
same,MIC P. aeruginosa ATCC,[3]; ATCC 27853,3.7 (3.7)^3.7 µM
same,MIC in the presence of cations P. aeruginosa ATCC,[3]; ATCC 27853,3.7 (3.7)^3.7 µM
same,MBC P. aeruginosa,[4]; clinical isolate - animal,7.4 µM
same,MIC,"[4]; clinical isolate - animal, read-out: MIC P. aeruginosa",3.7 µM
same,MIC,"[4]; clinical isolate - animal, read-out: MIC in the presence of cations P. aeruginosa",3.7 µM
same,MBC S. aureus ATCC,[5]; ATCC 29213,7.4 (7.4)^7.4 µM
same,MIC S. aureus ATCC,[5]; ATCC 29213,7.4 (7.4)^7.4 µM
same,MIC in the presence of cations S. aureus ATCC,[5]; ATCC 29213,7.4 (7.4)^7.4 µM
same,MBC S. aureus,[6]; clinical isolate - animal,7.4 (7.4)^7.4 µM
same,MIC S. aureus,[6]; clinical isolate - animal,7.4 (7.4)^7.4 µM
same,MIC in the presence of cations S. aureus,[6]; clinical isolate - animal,7.4 (7.4)^7.4 µM
same,MIC C. albicans,[7]; Clinical isolate - human,>64 mg/L
same,MFC C. krusei ATCC,Candida krusei ATCC 6258; ATCC 6258,> 64 mg/L
same,MIC,[8]; ATCC 22019,7.4 µM
same,MBC S. agalactiae ATCC,[9]; ATCC 12386,14.8 µM
same,MIC S. agalactiae ATCC,[9]; ATCC 12386,14.8 µM
same,MBC S. agalactiae,[10]; clinical isolate - animal,7.4 µM
same,MIC S. agalactiae,[10]; clinical isolate - animal,7.4 µM
same,MBC S. pneumoniae ATCC,[11]; ATCC 49619,7.4 µM
same,MIC S. pneumoniae ATCC,[11]; ATCC 49619,7.4 µM
same,MBC MRSA,[12]; [14],> 14.8 µM
same,MIC MRSA,[12]; [14],14.8 µM
same,MBC PRSA,[13]; [15],7.4 µM
same,MIC PRSA,[13]; [15],3.7 µM
CC[C@H](C)[C@H](NC(=O)[C@H](CCCCN)NC(=O)[C@H](Cc1ccccc1)NC(=O)[C@H](CC(N)=O)NC(=O)[C@H](CCCCN)NC(=O)[C@H](CC(C)C)NC(=O)[C@H](CCCNC(=N)N)NC(=O)[C@H](CCCCN)NC(=O)[C@H](CCCCN)NC(=O)[C@@H](NC(=O)[C@H](CO)NC(=O)[C@H](CC(=O)O)NC(=O)CNC(=O)[C@H](Cc1ccccc1)NC(=O)[C@H](CCCCN)NC(=O)[C@H](CCCCN)NC(=O)[C@H](CC(C)C)NC(=O)[C@H](CCCCN)NC(=O)[C@H](CCCCN)NC(=O)[C@H](CCCCN)NC(=O)[C@H](CC(C)C)NC(=O)[C@H](CO)NC(=O)[C@H](CCCCN)NC(=O)[C@H](Cc1c[nH]c2ccccc12)NC(=O)[C@H](CC(C)C)NC(=O)CNC(=O)[C@H](CCCNC(=N)N)NC(=O)[C@@H](N)CCCCN)[C@@H](C)CC)C(=O)NCC(=O)N[C@@H](Cc1ccccc1)C(=O)N1CCC[C@H]1C(=O)N[C@H](C(=O)N1CCC[C@H]1C(=O)N[C@@H](CC(C)C)C(=O)O)[C@@H](C)CC [MAP14] (H-KRGLWKSLKKKLKKFGDSIKKRLKNFKIGFPIPL-OH),MIC in the presence of cations E. coli ATCC,"[1]; superscript value, cation-adjusted Mueller Hinton broth, µM equivalent",1.9 (1.9)^1.9 µM
same,MBC E. coli ATCC,[1]; [16],1.9 (1.9)^1.9 µM
same,MIC E. coli ATCC,[1]; µM equivalent of Table 3,1.9 (1.9)^1.9 µM
same,MIC in the presence of cations E. coli,"[2]; clinical isolate, superscript value, cation-adjusted Mueller Hinton broth",4 mg/L
same,MIC in the presence of cations E. coli,[2]; [17],0.9 µM
same,MBC E. coli,[2]; [18],1.9 µM
same,MIC,[2]; [19],1.9 µM
same,MIC,"[3]; superscript value, cation-adjusted Mueller Hinton broth, µM equivalent, read-out: MIC in the presence of cations P. aeruginosa ATCC",1.9 µM
same,MBC P. aeruginosa ATCC,[3]; [16],3.9 µM
same,MIC,"[3]; µM equivalent of Table 3, read-out: MIC P. aeruginosa ATCC",3.9 µM
same,MBC P. aeruginosa,[4]; [18],3.9 (3.9)^3.9 µM
same,MIC P. aeruginosa,[4]; [19],3.9 (3.9)^3.9 µM
same,MIC in the presence of cations S. aureus ATCC,"[5]; superscript value, cation-adjusted Mueller Hinton broth, µM equivalent of Table 3",7.9 (7.9)^7.9 µM
same,MBC S. aureus ATCC,[5]; [16],7.9 (7.9)^7.9 µM
same,MIC S. aureus ATCC,[5]; µM equivalent of Table 3,7.9 (7.9)^7.9 µM
same,MIC in the presence of cations S. aureus,[6]; [17],7.9 (7.9)^7.9 µM
same,MBC S. aureus,[6]; [18],7.9 (7.9)^7.9 µM
same,MIC S. aureus,[6]; [19],7.9 (7.9)^7.9 µM
same,MIC,"[7]; clinical isolate, µM version of Table 4, read-out: MIC C. albicans",>15.8 µM
same,MFC C. krusei ATCC,Candida krusei ATCC 6258; [20],> 15.8 µM
same,MIC C. krusei ATCC,Candida krusei ATCC 6258; µM version of Table 4,15.8 µM
same,MFC C. parapsilosis ATCC,[8]; [20],7.9 µM
same,MIC,[8]; µM version of Table 4,3.9 µM
same,MBC S. agalactiae ATCC,[9]; [16],15.8 µM
same,MIC S. agalactiae ATCC,[9]; µM equivalent of Table 3,15.8 µM
same,MBC S. agalactiae,[10]; [18],7.9 µM
same,MIC S. agalactiae,[10]; [19],7.9 µM
same,MBC S. pneumoniae ATCC,[11]; [16],7.9 µM
same,MIC S. pneumoniae ATCC,[11]; µM equivalent of Table 3,7.9 µM
same,MBC MRSA,[12]; [16],15.8 µM
same,MIC MRSA,[12]; µM equivalent of Table 3,15.8 µM
same,MBC PRSA,[13]; [16],3.9 µM
same,MIC PRSA,[13]; µM equivalent of Table 3,3.9 µM
